Patent publication US20100168112A1, “2-Substituted and 4-substituted aryl nitrone compounds” (RENOVIS, INC., priority 2004, published 2010)

Tested on: 1K1C rats
Experiment: Kidney ischemia-reperfusion injury, one-kidney one-clip (1K1C) model, fractional excretion of sodium
Format: in vivo
Conditions: mean ± SEM
Experimental: Rats were individually housed in a modified cage that was equipped with a raised mesh bottom to separate the fecal product from urine. Before the test, all animals were withheld from food and water overnight. In the morning of the test, normal saline (i.e., 0.9% sodium chloride) was given via oral gavage at […] (Lipschitz, W. L. Hadidian, Z. & Kerpcar, A.: Bioassay of diuretics., J. Pharmacol. Exp. Ther., 79: 97-110, 1943). Samples of blood and urine were collected (standard procedures) at time points (1 and/or 5 hrs after fluid intake) from animals, centrifuged, and kept at 4 degrees until analysis for factors that reflect renal functions. Sodium and creatinine levels were determined by Quality Clinical Labs, Inc. (Mountain View, Calif.). Sodium concentrations were determined by ion selective electrode (standard procedures). Creatinine levels were determined by the alkaline picrated (Jaffe) reaction as described (Liobat-Estelles, M., Sevillano-Cabeja, A. & Campines-Falco, P.: Kinetic chemometric studies of the determination of creatinine using the Jaffe reaction. Part I: kinetics of the reaction; analytical conclusion. Analyst, 11: 597-602, 1989). Fractional excretion of sodium (FENa+), a parameter for ion-handling by the kidney, was calculated, using the following equation: =UNa×Pcr/PNa×Ucr, where UNa is the concentration of sodium in urine; Pcr is the plasma concentration of creatinine; PNa is the […]; and Ucr is the concentration of creatinine in the urine.
After the data for the calculation of basal levels of FENa+ was obtained (Table 16), rats were anesthetized with pentobarbital (65 mg/kg, i.p.). The abdominal region was shaved with a safety razor and sterilized with povidone iodine solution. A midline incision was made and the right kidney was exposed. The right renal pedicle and right urether were both ligated twice with 4-0 sutures and cut between the ligations. The right kidney was then removed. 7 days later, these rats, after another overnight food-water deprivation, were randomly assigned into 3 groups and orally given either Compound 62 (50 mg/kg, at the volume of 1 ml/kg,p.o.) or its vehicle (i.e., 96% of 0.5% CMC and 4 of 20% Tween 80, at the volume of 1 ml/kg, p.o.) 1 hr before kidney ischemia was produced. Positive controls were performed using quercetin (30 mg/kg, i.p.) given 2 hrs before ischemia (Kahraman, A., Erkasap, N., Serteser, M. & Koken, T.: Protective effect of quercetin on renal ischemia/reperfusion injury in rats. J. Nephrol., 16: 219-224, 2003). Animals were then anesthetized and had their left kidneys exposed after opening of their abdominal cavities. A non-traumatic vascular clamp was applied to the left renal pedicle (the ischemia phase), which was released 45 min later (the reperfusion phase). Lipschitz test was then conducted to measure ion-handling capabilities. Normal saline was orally administered at […] as soon as the vascular clamp was released. 60- and 300-min after reperfusion, plasma and urine samples were obtained.

[1] = 1K1C rats, Compound 62 50 mg/kg p.o. 1 hr before ischemia, quercetin 30 mg/kg i.p. 2 hrs before, 45 min ischemia

O=c1c(O)c(-c2ccc(O)c(O)c2)oc2cc(O)cc(O)c12 [Quercetin, quercetin, reference compound]
1-hr post-ischemic FENa+ (%) [1]: 0.54 ± 0.02 % | 5-hr post-ischemic FENa+ (%) [1]: 5.23 ± 4.43% | FENa+ (%) pre-surgery (basal) levels (rats before 1K1C modeling, group baseline): 1.60 ± 0.15%
